# System: 521955-158-R2-J5-PDC complex spheroid growth
# Assay: Anticancer human tumor 521955-158-R2-J5-PDC patient-derived pancreatic carcinoma cell line growth inhibition [AhR]
# Conditions: for IC50: curve of first compound; for viability, T/C: stronger effect = lower value
# In short: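 Spheroids combined tumor cells with HUVEC endothelial cells and human MSCs as stroma. AhR antagonists were paired with standard or investigational drugs, each dosed in half-log steps down from near clinical Cmax, or from 10 microM where Cmax was unknown.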
# [1] = second compound 0.1 µM, first compound 0.0316 µM
# [2] = second compound 0.1 µM, first compound 0.1 µM
# [3] = second compound 0.1 µM, first compound 0.316 µM
# [4] = second compound 0.1 µM, first compound 1 µM
# [5] = second compound 0.1 µM, first compound 3.16 µM
# [6] = second compound 0.1 µM, first compound 10 µM
# [7] = second compound 0.316 µM, first compound 0.0316 µM
# [8] = second compound 0.316 µM, first compound 0.1 µM
# [9] = second compound 0.316 µM, first compound 0.316 µM
# [10] = second compound 0.316 µM, first compound 1 µM
# [11] = second compound 0.316 µM, first compound 3.16 µM
# [12] = second compound 0.316 µM, first compound 10 µM
# [13] = second compound 1 µM, first compound 0.0316 µM
# [14] = second compound 1 µM, first compound 0.1 µM
# [15] = second compound 1 µM, first compound 0.316 µM
# [16] = second compound 1 µM, first compound 1 µM
# [17] = second compound 1 µM, first compound 3.16 µM
# [18] = second compound 1 µM, first compound 10 µM
# [19] = second compound 3.16 µM, first compound 0.0316 µM
# [20] = second compound 3.16 µM, first compound 0.1 µM
# [21] = second compound 3.16 µM, first compound 0.316 µM
# [22] = second compound 3.16 µM, first compound 1 µM
# [23] = second compound 3.16 µM, first compound 3.16 µM
# [24] = second compound 3.16 µM, first compound 10 µM
# [25] = second compound 10 µM, first compound 0.0316 µM
# [26] = second compound 10 µM, first compound 0.1 µM
# [27] = second compound 10 µM, first compound 0.316 µM
# [28] = second compound 10 µM, first compound 1 µM
# [29] = second compound 10 µM, first compound 3.16 µM
# [30] = second compound 10 µM, first compound 10 µM
# [31] = second compound 0.1 µM, first compound 0.00949 µM
# [32] = second compound 0.1 µM, first compound 0.03 µM
# [33] = second compound 0.1 µM, first compound 0.0949 µM
# [34] = second compound 0.1 µM, first compound 0.3 µM
# [35] = second compound 0.1 µM, first compound 0.949 µM
# [36] = second compound 0.1 µM, first compound 3 µM
# [37] = second compound 0.316 µM, first compound 0.00949 µM
# [38] = second compound 0.316 µM, first compound 0.03 µM
# [39] = second compound 0.316 µM, first compound 0.0949 µM
# [40] = second compound 0.316 µM, first compound 0.3 µM
# [41] = second compound 0.316 µM, first compound 0.949 µM
# [42] = second compound 0.316 µM, first compound 3 µM
# [43] = second compound 1 µM, first compound 0.00949 µM
# [44] = second compound 1 µM, first compound 0.03 µM
# [45] = second compound 1 µM, first compound 0.0949 µM
# [46] = second compound 1 µM, first compound 0.3 µM
# [47] = second compound 1 µM, first compound 0.949 µM
# [48] = second compound 1 µM, first compound 3 µM
# [49] = second compound 3.16 µM, first compound 0.00949 µM
# [50] = second compound 3.16 µM, first compound 0.03 µM
# [51] = second compound 3.16 µM, first compound 0.0949 µM
# [52] = second compound 3.16 µM, first compound 0.3 µM
# [53] = second compound 3.16 µM, first compound 0.949 µM
# [54] = second compound 3.16 µM, first compound 3 µM
# [55] = second compound 10 µM, first compound 0.00949 µM
# [56] = second compound 10 µM, first compound 0.03 µM
# [57] = second compound 10 µM, first compound 0.0949 µM
# [58] = second compound 10 µM, first compound 0.3 µM
# [59] = second compound 10 µM, first compound 0.949 µM
# [60] = second compound 10 µM, first compound 3 µM
# 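Throughout, for viability, T/C: spheroids mix tumor cells with HUVEC endothelium and human MSC stroma; luminescence taken as viability surrogate after a week of drug exposure.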
compound,measurement,setting,value
CC1(C)CCC(CN2CCN(c3ccc(C(=O)NS(=O)(=O)c4ccc(NCC5CCOCC5)c([N+](=O)[O-])c4)c(Oc4cnc5[nH]ccc5c4)c3)CC2)=C(c2ccc(Cl)cc2)C1 + Cc1cncc(-c2nc(NCCc3c[nH]c4ccccc34)c3ncn(C(C)C)c3n2)c1,IC50,second compound 0.1 µM,> 10000 nM
same,IC50,second compound 0.316 µM,> 10000 nM
same,IC50,second compound 1 µM,> 10000 nM
same,IC50,second compound 3.16 µM,> 10000 nM
same,IC50,second compound 10 µM,> 10000 nM
same,"viability, T/C",[1],110%
same,"viability, T/C",[2],111%
same,"viability, T/C",[3],102%
same,"viability, T/C",[4],104%
same,"viability, T/C",[5],92.8%
same,"viability, T/C",[6],74.7%
same,"viability, T/C",[7],104%
same,"viability, T/C",[8],109%
same,"viability, T/C",[9],119%
same,"viability, T/C",[10],105%
same,"viability, T/C",[11],99.9%
same,"viability, T/C",[12],79.5%
same,"viability, T/C",[13],111%
same,"viability, T/C",[14],124%
same,"viability, T/C",[15],121%
same,"viability, T/C",[16],111%
same,"viability, T/C",[17],111%
same,"viability, T/C",[18],76.3%
same,"viability, T/C",[19],146%
same,"viability, T/C",[20],123%
same,"viability, T/C",[21],133%
same,"viability, T/C",[22],120%
same,"viability, T/C",[23],113%
same,"viability, T/C",[24],94.9%
same,"viability, T/C",[25],148%
same,"viability, T/C",[26],147%
same,"viability, T/C",[27],138%
same,"viability, T/C",[28],156%
same,"viability, T/C",[29],118%
same,"viability, T/C",[30],102%
CC1COCCN1c1cc(C2(S(C)(=N)=O)CC2)nc(-c2ccnc3[nH]ccc23)n1 (stereo not given) + Cc1cncc(-c2nc(NCCc3c[nH]c4ccccc34)c3ncn(C(C)C)c3n2)c1,IC50,second compound 0.1 µM,2450 nM
same,IC50,second compound 0.316 µM,2570 nM
same,IC50,second compound 1 µM,2590 nM
same,IC50,second compound 3.16 µM,2640 nM
same,IC50,second compound 10 µM,2470 nM
same,"viability, T/C",[1],115%
same,"viability, T/C",[2],108%
same,"viability, T/C",[3],114%
same,"viability, T/C",[4],107%
same,"viability, T/C",[5],33.8%
same,"viability, T/C",[6],15.5%
same,"viability, T/C",[7],125%
same,"viability, T/C",[8],131%
same,"viability, T/C",[9],105%
same,"viability, T/C",[10],118%
same,"viability, T/C",[11],35.1%
same,"viability, T/C",[12],14.4%
same,"viability, T/C",[13],140%
same,"viability, T/C",[14],138%
same,"viability, T/C",[15],131%
same,"viability, T/C",[16],128%
same,"viability, T/C",[17],33.5%
same,"viability, T/C",[18],15.5%
same,"viability, T/C",[19],139%
same,"viability, T/C",[20],142%
same,"viability, T/C",[21],154%
same,"viability, T/C",[22],128%
same,"viability, T/C",[23],35.7%
same,"viability, T/C",[24],14.5%
same,"viability, T/C",[25],130%
same,"viability, T/C",[26],132%
same,"viability, T/C",[27],139%
same,"viability, T/C",[28],111%
same,"viability, T/C",[29],33.9%
same,"viability, T/C",[30],14.3%
CCN(c1cc(-c2ccc(CN3CCOCC3)cc2)cc(C(=O)NCc2c(C)cc(C)[nH]c2=O)c1C)C1CCOCC1 + Cc1cncc(-c2nc(NCCc3c[nH]c4ccccc34)c3ncn(C(C)C)c3n2)c1,IC50,second compound 0.1 µM,> 3000 nM
same,IC50,second compound 0.316 µM,> 3000 nM
same,IC50,second compound 1 µM,> 3000 nM
same,IC50,second compound 3.16 µM,> 3000 nM
same,IC50,second compound 10 µM,> 3000 nM
same,"viability, T/C",[31],118%
same,"viability, T/C",[32],112%
same,"viability, T/C",[33],124%
same,"viability, T/C",[34],94.7%
same,"viability, T/C",[35],117%
same,"viability, T/C",[36],95.9%
same,"viability, T/C",[37],99.5%
same,"viability, T/C",[38],108%
same,"viability, T/C",[39],106%
same,"viability, T/C",[40],109%
same,"viability, T/C",[41],110%
same,"viability, T/C",[42],104%
same,"viability, T/C",[43],125%
same,"viability, T/C",[44],130%
same,"viability, T/C",[45],122%
same,"viability, T/C",[46],118%
same,"viability, T/C",[47],99.6%
same,"viability, T/C",[48],115%
same,"viability, T/C",[49],158%
same,"viability, T/C",[50],133%
same,"viability, T/C",[51],130%
same,"viability, T/C",[52],148%
same,"viability, T/C",[53],110%
same,"viability, T/C",[54],124%
same,"viability, T/C",[55],112%
same,"viability, T/C",[56],140%
same,"viability, T/C",[57],111%
same,"viability, T/C",[58],116%
same,"viability, T/C",[59],84.2%
same,"viability, T/C",[60],72.3%
Nc1ncn(C2CC(O)C(CO)S2)c(=O)n1 (stereo not given) + Cc1cncc(-c2nc(NCCc3c[nH]c4ccccc34)c3ncn(C(C)C)c3n2)c1,IC50,second compound 0.1 µM,> 300 nM
same,IC50,second compound 0.316 µM,> 300 nM
same,IC50,second compound 1 µM,> 300 nM
same,IC50,second compound 3.16 µM,> 300 nM
same,IC50,second compound 10 µM,> 300 nM
same,"viability, T/C","second compound 0.1 µM, first compound 0.000949 µM",115%
same,"viability, T/C","second compound 0.1 µM, first compound 0.003 µM",113%
same,"viability, T/C",[31],123%
same,"viability, T/C",[32],105%
same,"viability, T/C",[33],93.3%
same,"viability, T/C",[34],97.8%
same,"viability, T/C","second compound 0.316 µM, first compound 0.000949 µM",112%
same,"viability, T/C","second compound 0.316 µM, first compound 0.003 µM",112%
same,"viability, T/C",[37],117%
same,"viability, T/C",[38],115%
same,"viability, T/C",[39],99.5%
same,"viability, T/C",[40],93.7%
same,"viability, T/C","second compound 1 µM, first compound 0.000949 µM",126%
same,"viability, T/C","second compound 1 µM, first compound 0.003 µM",161%
same,"viability, T/C",[43],158%
same,"viability, T/C",[44],125%
same,"viability, T/C",[45],125%
same,"viability, T/C",[46],99%
same,"viability, T/C","second compound 3.16 µM, first compound 0.000949 µM",146%
same,"viability, T/C","second compound 3.16 µM, first compound 0.003 µM",129%
same,"viability, T/C",[49],122%
same,"viability, T/C",[50],123%
same,"viability, T/C",[51],118%
same,"viability, T/C",[52],128%
same,"viability, T/C","second compound 10 µM, first compound 0.000949 µM",145%
same,"viability, T/C","second compound 10 µM, first compound 0.003 µM",143%
same,"viability, T/C",[55],105%
same,"viability, T/C",[56],142%
same,"viability, T/C",[57],114%
same,"viability, T/C",[58],121%
O=C(C=Cn1cnc(-c2cc(C(F)(F)F)cc(C(F)(F)F)c2)n1)NNc1cnccn1 + Cc1cncc(-c2nc(NCCc3c[nH]c4ccccc34)c3ncn(C(C)C)c3n2)c1,IC50,second compound 0.1 µM,218 nM
same,IC50,second compound 0.316 µM,200 nM
same,IC50,second compound 1 µM,251 nM
same,IC50,second compound 3.16 µM,108 nM
same,IC50,second compound 10 µM,< 9.49 nM
same,"viability, T/C",[31],65.6%
same,"viability, T/C",[32],59.7%
same,"viability, T/C",[33],53.2%
same,"viability, T/C",[34],51.5%
same,"viability, T/C",[35],37.1%
same,"viability, T/C",[36],26.3%
same,"viability, T/C",[37],76.1%
same,"viability, T/C",[38],58.9%
same,"viability, T/C",[39],57.6%
same,"viability, T/C",[40],49.3%
same,"viability, T/C",[41],39.6%
same,"viability, T/C",[42],29.1%
same,"viability, T/C",[43],74.5%
same,"viability, T/C",[44],70%
same,"viability, T/C",[45],54.5%
same,"viability, T/C",[46],49.4%
same,"viability, T/C",[47],38.9%
same,"viability, T/C",[48],24.9%
same,"viability, T/C",[49],78.7%
same,"viability, T/C",[50],59.1%
same,"viability, T/C",[51],53.2%
same,"viability, T/C",[52],36.8%
same,"viability, T/C",[53],40.9%
same,"viability, T/C",[54],23.8%
same,"viability, T/C",[55],38.3%
same,"viability, T/C",[56],35.9%
same,"viability, T/C",[57],28.2%
same,"viability, T/C",[58],24.7%
same,"viability, T/C",[59],19.7%
same,"viability, T/C",[60],19.8%

# Source: PubChem BioAssay AID1918998 (Molecular Pharmacology Branch, DTP, NCI, 2023)
